{"source": "ChEMBL document CHEMBL1134242", "about": "(Bioorg Med Chem Lett, 2001)", "key": {"[1]": {"molecular_target": "Sodium-dependent serotonin transporter (Rattus norvegicus, UniProt P31652)", "sequence (P31652 whole entry)": "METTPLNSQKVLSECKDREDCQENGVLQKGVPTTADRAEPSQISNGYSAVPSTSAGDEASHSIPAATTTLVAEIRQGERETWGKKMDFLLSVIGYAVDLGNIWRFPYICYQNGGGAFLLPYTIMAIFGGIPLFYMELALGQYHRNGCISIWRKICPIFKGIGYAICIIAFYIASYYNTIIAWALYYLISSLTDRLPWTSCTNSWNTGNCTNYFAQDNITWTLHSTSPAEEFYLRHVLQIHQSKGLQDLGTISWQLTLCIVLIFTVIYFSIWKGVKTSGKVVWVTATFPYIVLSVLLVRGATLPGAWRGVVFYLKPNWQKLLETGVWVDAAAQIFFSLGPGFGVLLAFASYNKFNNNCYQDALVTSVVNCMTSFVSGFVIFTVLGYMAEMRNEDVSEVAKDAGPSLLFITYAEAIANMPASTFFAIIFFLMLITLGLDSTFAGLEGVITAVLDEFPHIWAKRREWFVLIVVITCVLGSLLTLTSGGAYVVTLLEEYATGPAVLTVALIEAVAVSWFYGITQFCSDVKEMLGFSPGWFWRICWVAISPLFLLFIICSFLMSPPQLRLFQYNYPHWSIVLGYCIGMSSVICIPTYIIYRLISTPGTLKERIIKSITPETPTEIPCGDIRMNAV", "assay": "Ability to inhibit binding of [3H]paroxetine to Serotonin transporter in rat caudate putamen", "type": "tissue-based"}, "[2]": {"species_on_record": "Rattus norvegicus", "assay": "Ability to inhibit high-affinity uptake of [3H]DA into striatal nerve endings (synaptosomes)", "type": "functional", "details": "Brain"}, "[3]": {"molecular_target": "Sodium-dependent dopamine transporter (Rattus norvegicus, UniProt P23977)", "sequence (P23977 whole entry)": "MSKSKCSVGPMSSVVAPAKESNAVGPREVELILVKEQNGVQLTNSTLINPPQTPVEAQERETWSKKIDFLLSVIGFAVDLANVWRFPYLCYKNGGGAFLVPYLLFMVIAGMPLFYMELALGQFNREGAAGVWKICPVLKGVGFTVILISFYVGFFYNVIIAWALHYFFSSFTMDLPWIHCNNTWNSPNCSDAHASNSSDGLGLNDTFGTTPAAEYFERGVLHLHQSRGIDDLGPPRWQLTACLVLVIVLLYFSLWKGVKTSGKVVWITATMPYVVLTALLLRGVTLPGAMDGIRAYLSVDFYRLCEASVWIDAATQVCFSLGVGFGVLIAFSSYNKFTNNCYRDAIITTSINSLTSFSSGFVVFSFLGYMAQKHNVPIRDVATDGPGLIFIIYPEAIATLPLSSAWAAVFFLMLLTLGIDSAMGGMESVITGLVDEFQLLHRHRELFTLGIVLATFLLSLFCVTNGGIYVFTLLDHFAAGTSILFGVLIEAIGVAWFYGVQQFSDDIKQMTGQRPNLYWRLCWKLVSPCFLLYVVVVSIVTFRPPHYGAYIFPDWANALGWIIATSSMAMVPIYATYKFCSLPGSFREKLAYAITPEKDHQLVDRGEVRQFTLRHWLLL", "assay": "Ability to inhibit binding of [3H]WIN-35428 to dopamine transporter in rat caudate putamen", "type": "tissue-based"}}}
{"smiles": "CO[C@H]1CC2C[C@H](OC(c3ccccc3)c3ccc(Cl)cc3)CC1N2C", "note": "(stereo partly drawn)", "values": [{"measurement": "IC50", "setting": "[1]", "value": "> 100", "unit": "µM"}, {"measurement": "IC50", "setting": "[2]", "value": 0.519, "unit": "µM"}, {"measurement": "IC50", "setting": "[3]", "value": 0.75, "unit": "µM"}]}
{"smiles": "CO[C@@H]1CC2C[C@@H](OC(c3ccccc3)c3ccc(Cl)cc3)CC1N2C", "note": "(stereo partly drawn)", "values": [{"measurement": "IC50", "setting": "[1]", "value": "> 100", "unit": "µM"}, {"measurement": "IC50", "setting": "[2]", "value": 0.179, "unit": "µM"}, {"measurement": "IC50", "setting": "[3]", "value": 0.032, "unit": "µM"}]}
{"smiles": "c1ccc(C(O[C@H]2C[C@H]3CC[C@@H](C2)O3)c2ccccc2)cc1", "values": [{"measurement": "IC50", "setting": "[3]", "value": "> 10", "unit": "µM"}]}
{"smiles": "Fc1ccc(C(O[C@H]2C[C@H]3CC[C@@H](C2)O3)c2ccc(F)cc2)cc1", "values": [{"measurement": "IC50", "setting": "[3]", "value": 2, "unit": "µM"}]}
{"smiles": "CO[C@H]1CC2C[C@H](OC(c3ccc(F)cc3)c3ccc(F)cc3)CC1N2C", "note": "(stereo partly drawn)", "values": [{"measurement": "IC50", "setting": "[1]", "value": "> 100", "unit": "µM"}, {"measurement": "IC50", "setting": "[2]", "value": 0.165, "unit": "µM"}, {"measurement": "IC50", "setting": "[3]", "value": 0.095, "unit": "µM"}]}
{"smiles": "CO[C@@H]1CC2C[C@@H](OC(c3ccc(F)cc3)c3ccc(F)cc3)CC1N2C", "note": "(stereo partly drawn)", "values": [{"measurement": "IC50", "setting": "[1]", "value": "> 100", "unit": "µM"}, {"measurement": "IC50", "setting": "[2]", "value": 0.104, "unit": "µM"}, {"measurement": "IC50", "setting": "[3]", "value": 0.025, "unit": "µM"}]}
{"smiles": "CO[C@H]1CC2C[C@H](OC(c3ccccc3)c3ccccc3)CC1N2C", "note": "(mixture of isomers)", "values": [{"measurement": "IC50", "setting": "[1]", "value": "> 100", "unit": "µM"}, {"measurement": "IC50", "setting": "[2]", "value": 2.28, "unit": "µM"}, {"measurement": "IC50", "setting": "[3]", "value": 0.65, "unit": "µM"}]}
{"smiles": "COC(=O)[C@@H]1C2CC[C@@H](C[C@@H]1OC(=O)c1ccccc1)N2C", "note": "(single isomer, unassigned) [COCAINE]", "values": [{"measurement": "IC50", "setting": "[2]", "value": 0.208, "unit": "µM"}]}
